Assay results from patent US9829495B2, “Method for differentially diagnosing ACTH-dependent Cushing's syndrome” (Corcept Therapeutics, Inc., priority 2015, dated 2017).

Test system: ACTH from the pituitary gland
Experiment: ACTH stimulation after oral mifepristone in persons with normal HPA function
Format: in vivo, human
Settings: oral dose of 300-1500 mg; persons having normal hypothalamic-pituitary-adrenal axis (HPA) function
Procedure: GRA is administered at a dosage that is sufficient to increase ACTH in the pituitary gland by at least two fold in persons with normal HPA functions. In one embodiment, the GRA is mifepristone. In one embodiment, mifepristone is administered orally to the patient. […] In one embodiment, the GRA is administered at 11 pm the night before IPSS. Following the diagnosis of ACTH dependent Cushing's syndrome, they then undergo IPSS to identify the source of abnormal ACTH secretion, i.e., whether it is pituitary or ectopic. […] Another 0.018 microcatherter is inserted into the peripheral jugular vein. A 5,000 unit bolus of heparin is administered to the veins to prevent venous sinus thrombosis.

CC#C[C@]1(O)CC[C@H]2[C@@H]3CCC4=CC(=O)CCC4=C3[C@@H](c3ccc(N(C)C)cc3)C[C@@]21C [mifepristone, 17-β-hydrox-11-β-(4-dimethyl-aminophenyl)17-α-(1-propynyl)estra-4,9-dien-3-one]
increase ACTH from the pituitary gland: at least two-fold
